IC50 data for twelve compounds are collected here from patent US12612410B2 (CHILDREN'S HOSPITAL MEDICAL CENTER, priority 2020, dated 2026).

pIC50: −log10 of the molar value.

In test [1] the target is T1, FLT3 (Homo sapiens, UniProt P36888).
T1 sequence (P36888 27-993): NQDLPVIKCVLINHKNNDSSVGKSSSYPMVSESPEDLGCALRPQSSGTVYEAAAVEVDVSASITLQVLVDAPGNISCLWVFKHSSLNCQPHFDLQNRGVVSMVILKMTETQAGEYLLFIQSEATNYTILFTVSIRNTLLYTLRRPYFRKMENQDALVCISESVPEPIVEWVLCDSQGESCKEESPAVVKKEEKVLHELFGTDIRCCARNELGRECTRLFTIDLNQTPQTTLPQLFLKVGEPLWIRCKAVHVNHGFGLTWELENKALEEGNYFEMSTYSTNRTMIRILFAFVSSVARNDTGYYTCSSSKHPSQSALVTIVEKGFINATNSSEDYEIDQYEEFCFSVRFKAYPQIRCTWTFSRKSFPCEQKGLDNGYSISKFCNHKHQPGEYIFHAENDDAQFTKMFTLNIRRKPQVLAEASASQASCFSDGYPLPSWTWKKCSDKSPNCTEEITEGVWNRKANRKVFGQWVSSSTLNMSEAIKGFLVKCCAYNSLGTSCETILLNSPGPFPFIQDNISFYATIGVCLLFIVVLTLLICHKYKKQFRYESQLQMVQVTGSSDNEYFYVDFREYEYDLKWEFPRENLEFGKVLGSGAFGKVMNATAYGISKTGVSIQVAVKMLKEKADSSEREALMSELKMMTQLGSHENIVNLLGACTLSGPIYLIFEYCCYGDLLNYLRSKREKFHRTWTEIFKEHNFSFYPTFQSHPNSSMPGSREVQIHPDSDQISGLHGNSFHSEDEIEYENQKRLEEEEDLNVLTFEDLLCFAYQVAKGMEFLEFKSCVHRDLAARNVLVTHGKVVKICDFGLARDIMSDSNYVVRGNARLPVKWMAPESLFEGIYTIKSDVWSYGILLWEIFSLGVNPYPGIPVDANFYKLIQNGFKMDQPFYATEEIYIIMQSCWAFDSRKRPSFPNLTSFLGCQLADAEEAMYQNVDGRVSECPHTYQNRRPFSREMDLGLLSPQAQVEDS
As to the kind of experiment: RBC HotSpot Kinase Assay, FLT3. More on the design: purchased Reaction Biology (RBC), HotSpot kinase assay. The test is classed as biochemical. The note with it: isolated kinase, 33P-ATP. The procedure, abridged:
(§1)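 Steps: substrate in reaction buffer (20 mM Hepes pH 7.5, 10 mM MgCl2, 2 mM DTT, 1% DMSO); cofactors added; kinase added; compound dispensed acoustically, 20 min RT; 33P-ATP added; 2 h RT; P81 filter capture.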

In test [2] the target is T2, IRAK1 (Homo sapiens, UniProt P51617).
T2 construct: purchased Reaction Biology (RBC), HotSpot kinase assay
As to the kind of experiment: RBC HotSpot Kinase Assay, IRAK1. The test is classed as biochemical. As to conditions: isolated kinase, 33P-ATP. The procedure, abridged:
as §1

T2 sequence (P51617 whole entry): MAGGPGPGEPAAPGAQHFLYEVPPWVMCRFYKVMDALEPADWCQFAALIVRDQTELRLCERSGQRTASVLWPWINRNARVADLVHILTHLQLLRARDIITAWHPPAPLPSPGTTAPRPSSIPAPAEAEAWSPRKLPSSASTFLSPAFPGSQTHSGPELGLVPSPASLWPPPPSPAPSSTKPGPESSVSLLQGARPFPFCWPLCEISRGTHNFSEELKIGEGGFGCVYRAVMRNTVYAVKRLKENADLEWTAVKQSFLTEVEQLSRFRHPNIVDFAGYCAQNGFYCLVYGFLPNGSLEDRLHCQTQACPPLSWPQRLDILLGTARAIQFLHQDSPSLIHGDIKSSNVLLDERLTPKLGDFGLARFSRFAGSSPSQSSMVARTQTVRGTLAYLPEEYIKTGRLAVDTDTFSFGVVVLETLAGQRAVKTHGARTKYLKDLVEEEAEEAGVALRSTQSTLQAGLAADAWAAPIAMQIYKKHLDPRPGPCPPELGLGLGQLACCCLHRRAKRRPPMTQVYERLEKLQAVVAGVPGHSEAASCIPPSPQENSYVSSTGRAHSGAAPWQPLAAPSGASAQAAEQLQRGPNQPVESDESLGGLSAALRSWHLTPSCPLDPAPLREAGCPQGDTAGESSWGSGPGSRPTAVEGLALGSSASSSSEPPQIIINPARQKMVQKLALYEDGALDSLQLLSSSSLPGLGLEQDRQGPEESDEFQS

For `CC(C)(O)c1cn2c(-c3nc(N[C@@H]4CCCNC4)c(F)cc3F)cnc2cn1` [Compound 34, (R)-2-(3-(3,5-difluoro-6-(piperidin-3-ylamino)pyridin-2-yl)imidazo[1,2-a]pyrazin-6-yl)propan-2-ol], the pIC50 (commonly the IC50 on a negative log10 scale, so that one unit is a factor of ten) was 8.40 in test [1] and 7.33 in test [2].
Taken in the same sequence, the figures for `CC(C)(O)c1cn2c(-c3nc(N[C@H]4CNCC[C@@H]4F)c(F)cc3F)cnc2cn1` [Compound 35, 2-(3-(3,5-difluoro-6-(((3S,4S)-4-fluoropiperidin-3-yl)amino)pyridin-2-yl)imidazo[1,2-a]pyrazin-6-yl)propan-2-ol] were 9.00 and 7.35.
In the case of `FC(F)(F)COc1cn2c(-c3cccc(N[C@@H]4CCNC4)n3)cnc2cn1` [Compound 38, (R)-N-(pyrrolidin-3-yl)-6-(6-(2,2,2-trifluoroethoxy)imidazo[1,2-a]pyrazin-3-yl)pyridin-2-amine], the pIC50 is more than 9.30 in test [1] and 7.04 in test [2].
Taken in the same sequence, the figures for `Cn1cc(-c2cn3c(-c4cccc(N[C@@H]5CCCNC5)n4)cnc3cn2)cn1` [Compound 43, (R)-6-(6-(1-methyl-1H-pyrazol-4-yl)imidazo[1,2-a]pyrazin-3-yl)-N-(piperidin-3-yl)pyridin-2-amine] were more than 9.30 and 6.05.
Taken in the same sequence, the figures for `F[C@H]1CNC[C@@H]1Nc1cccc(-c2cnc3cnc(C4CC4)cn23)n1` [Compound 50, 6-(6-cyclopropylimidazo[1,2-a]pyrazin-3-yl)-N-((3S,4S)-4-fluoropyrrolidin-3-yl)pyridin-2-amine] were 9.22 and 6.95.
Taken in the same sequence, the figures for `F[C@H]1CCNC[C@@H]1Nc1cccc(-c2cnc3cnc(C4CC4)cn23)n1` [Compound 51, 6-(6-cyclopropylimidazo[1,2-a]pyrazin-3-yl)-N-((3S,4S)-4-fluoropiperidin-3-yl)pyridin-2-amine] were more than 9.30 and 7.10.
As to `Cn1cc(-c2cn3c(-c4cccc(N[C@H]5CNC[C@@H]5F)n4)cnc3cn2)cn1` [Compound 52, N-((3S,4S)-4-fluoropyrrolidin-3-yl)-6-(6-(1-methyl-1H-pyrazol-4-yl)imidazo[1,2-a]pyrazin-3-yl)pyridin-2-amine], the pIC50 in test [1] was more than 9.30; in test [2], 6.69.
Regarding `FC(F)COc1cn2c(-c3cccc(N[C@H]4CNC[C@@H]4F)n3)cnc2cn1` [Compound 58, 6-(6-(2,2-difluoroethoxy)imidazo[1,2-a]pyrazin-3-yl)-N-((3S,4S)-4-fluoropyrrolidin-3-yl)pyridin-2-amine], the pIC50 in test [1] was 9.15; in test [2] it was 6.93.
Taken in the same sequence, the figures for `O=S1(=O)CCCN1c1cn2c(-c3cccc(N[C@H]4CNCC[C@@H]4F)n3)cnc2cn1` [Compound 97, 2-(3-(6-(((3S,4S)-4-fluoropiperidin-3-yl)amino)pyridin-2-yl)imidazo[1,2-a]pyrazin-6-yl)isothiazolidine 1,1-dioxide] were 9.22 and 7.28.
Taken in the same sequence, the figures for `O=C1CCCN1c1cn2c(-c3nc(N[C@H]4CNCC[C@@H]4F)c(F)cc3F)cnc2cn1` [Compound 107, 1-[3-[3,5-difluoro-6-[[(3S,4S)-4-fluoro-3-piperidyl]amino]-2-pyridyl]imidazo[1,2-a]pyrazin-6-yl]pyrrolidin-2-one] were 9.00 and 6.89.
The like results for `O=C1CCCN1c1cn2c(-c3nc(N[C@@H]4CCCNC4)c(F)cc3F)cnc2cn1` [Compound 108, (R)-1-(3-(3,5-difluoro-6-(piperidin-3-ylamino)pyridin-2-yl)imidazo[1,2-a]pyrazin-6-yl)pyrrolidin-2-one] were, in that order, 9.05 and 6.96.
As for `O=C1NCCN1c1cn2c(-c3cccc(N[C@H]4CNCC[C@@H]4F)n3)cnc2cn1` [Compound 118, 1-(3-(6-(((3S,4S)-4-fluoropiperidin-3-yl)amino)pyridin-2-yl)imidazo[1,2-a]pyrazin-6-yl)imidazolidin-2-one], the pIC50 in test [1] was 9.00; in test [2] it was 7.66.
